Assay results reported in ChEMBL document CHEMBL3885881, “DrugMatrix”.

Species: Rattus norvegicus
Assay: DrugMatrix - Regimen: Daily Repeat
Assay type: toxicity, organism-based, Sprague-Dawley
Design: regimen Daily Repeat, gender Male, age 6-8 weeks
Conditions: in vivo, po, route oral GAVAGE, […]; for ABSOLUTE BASOPHIL / ABSOLUTE EOSINOPHIL / ABSOLUTE LYMPHOCYTE / ABSOLUTE MONOCYTE / ABSOLUTE SEGMENTED NEUTROPHIL / BASOPHIL / EOSINOPHIL / ERYTHROCYTE COUNT / HEMATOCRIT / HEMOGLOBIN / LEUKOCYTE COUNT / LYMPHOCYTE / MEAN CORPUSCULAR HEMOGLOBIN / MEAN CORPUSCULAR HEMOGLOBIN CONCENTRATION / MEAN CORPUSCULAR VOLUME / MONOCYTE / NEUTROPHIL / NUCLEATED RED BLOOD CELLS / PLATELET COUNT: tissue Blood; for ALANINE AMINOTRANSFERASE / ALBUMIN / ALKALINE PHOSPHATASE / ASPARTATE AMINOTRANSFERASE / BLOOD UREA NITROGEN / CARBON DIOXIDE / CHLORIDE / CHOLESTEROL / CREATINE PHOSPHOKINASE / CREATININE / GLUCOSE / LACTATE DEHYDROGENASE / LIPASE / PHOSPHORUS / POTASSIUM / SODIUM / TOTAL BILIRUBIN / TOTAL PROTEIN / URIC ACID: tissue Plasma
[1] = 0 mg/kg, 72 h, dose level Control, time 3 day
[2] = 0 mg/kg, dose level Control, time 7 day
[3] = 400 mg/kg, 72 h, dose level Low, time 3 day

ClC(Cl)(Cl)Cl [CARBON TETRACHLORIDE]
ABSOLUTE BASOPHIL [1]: 0 CELLS/uL | ABSOLUTE EOSINOPHIL [1]: 47.5 CELLS/uL | ABSOLUTE LYMPHOCYTE [1]: 9600.67 CELLS/uL | ABSOLUTE MONOCYTE [1]: 195.5 CELLS/uL | ABSOLUTE SEGMENTED NEUTROPHIL [1]: 839.67 CELLS/uL | BASOPHIL [1]: 0% | EOSINOPHIL [1]: 0.5% | ERYTHROCYTE COUNT [1]: 5.26 x10E6/uL | HEMATOCRIT [1]: 34.48% | HEMOGLOBIN [1]: 12.77 G/DL | LEUKOCYTE COUNT [1]: 10.68 x10E3/uL | LYMPHOCYTE [1]: 89.67% | MEAN CORPUSCULAR HEMOGLOBIN [1]: 24.3 pg | MEAN CORPUSCULAR HEMOGLOBIN CONCENTRATION [1]: 37.05 G/DL | MEAN CORPUSCULAR VOLUME [1]: 65.62 fL | MONOCYTE [1]: 1.83% | NEUTROPHIL [1]: 8% | NUCLEATED RED BLOOD CELLS [1]: 0.17 /100WBC | PLATELET COUNT [1]: 1038.67 x10E3/uL | ALANINE AMINOTRANSFERASE [1]: 65.17 u/L | ALBUMIN [1]: 4.2 G/DL | ALKALINE PHOSPHATASE [1]: 377.5 u/L | ASPARTATE AMINOTRANSFERASE [1]: 90.5 u/L | BLOOD UREA NITROGEN [1]: 13.5 mg/dL | CARBON DIOXIDE [1]: 31.17 mmol/L | CHLORIDE [1]: 98.33 MEQ/L | CHOLESTEROL [1]: 66.33 mg/dL | CREATINE PHOSPHOKINASE [1]: 478.83 u/L | CREATININE [1]: 0.19 mg/dL | GLUCOSE [1]: 155.17 mg/dL | LACTATE DEHYDROGENASE [1]: 107.5 u/L | LIPASE [1]: 10.33 u/L | PHOSPHORUS [1]: 9.25 mg/dL | POTASSIUM [1]: 5.43 MEQ/L | SODIUM [1]: 142.05 MEQ/L | TOTAL BILIRUBIN [1]: 0.12 mg/dL | TOTAL PROTEIN [1]: 5.95 G/DL | URIC ACID [1]: 0.62 mg/dL | ABSOLUTE BASOPHIL [2]: 0 CELLS/uL | ABSOLUTE EOSINOPHIL [2]: 43.5 CELLS/uL | ABSOLUTE LYMPHOCYTE [2]: 9369.83 CELLS/uL | ABSOLUTE MONOCYTE [2]: 196.17 CELLS/uL | ABSOLUTE SEGMENTED NEUTROPHIL [2]: 723.83 CELLS/uL | BASOPHIL [2]: 0% | EOSINOPHIL [2]: 0.5% | ERYTHROCYTE COUNT [2]: 5.09 x10E6/uL | HEMATOCRIT [2]: 32.42% | HEMOGLOBIN [2]: 13.1 G/DL | LEUKOCYTE COUNT [2]: 10.33 x10E3/uL | LYMPHOCYTE [2]: 90.83% | MEAN CORPUSCULAR HEMOGLOBIN [2]: 25.75 pg | MEAN CORPUSCULAR HEMOGLOBIN CONCENTRATION [2]: 40.43 G/DL | MEAN CORPUSCULAR VOLUME [2]: 63.62 fL | MONOCYTE [2]: 1.67% | NEUTROPHIL [2]: 7% | NUCLEATED RED BLOOD CELLS [2]: 0 /100WBC | PLATELET COUNT [2]: 1106.5 x10E3/uL | ALANINE AMINOTRANSFERASE [2]: 48.67 u/L | ALBUMIN [2]: 4.13 G/DL | ALKALINE PHOSPHATASE [2]: 275.17 u/L | ASPARTATE AMINOTRANSFERASE [2]: 73.17 u/L | BLOOD UREA NITROGEN [2]: 13.17 mg/dL | CARBON DIOXIDE [2]: 27.5 mmol/L | CHLORIDE [2]: 99.67 MEQ/L | CHOLESTEROL [2]: 60.83 mg/dL | CREATINE PHOSPHOKINASE [2]: 213 u/L | CREATININE [2]: 0.2 mg/dL | GLUCOSE [2]: 166.67 mg/dL | LACTATE DEHYDROGENASE [2]: 94.5 u/L | LIPASE [2]: 10.5 u/L | PHOSPHORUS [2]: 9.98 mg/dL | POTASSIUM [2]: 5.3 MEQ/L | SODIUM [2]: 140.77 MEQ/L | TOTAL BILIRUBIN [2]: 0.15 mg/dL | TOTAL PROTEIN [2]: 5.88 G/DL | URIC ACID [2]: 0.82 mg/dL | ABSOLUTE BASOPHIL [3]: 0 CELLS/uL | ABSOLUTE EOSINOPHIL [3]: 68.67 CELLS/uL | ABSOLUTE LYMPHOCYTE [3]: 9955.17 CELLS/uL | ABSOLUTE MONOCYTE [3]: 295.83 CELLS/uL | ABSOLUTE SEGMENTED NEUTROPHIL [3]: 1063.67 CELLS/uL | BASOPHIL [3]: 0% | EOSINOPHIL [3]: 0.67% | ERYTHROCYTE COUNT [3]: 5.78 x10E6/uL | HEMATOCRIT [3]: 36.52% | HEMOGLOBIN [3]: 13.38 G/DL | LEUKOCYTE COUNT [3]: 11.38 x10E3/uL | LYMPHOCYTE [3]: 87.5% | MEAN CORPUSCULAR HEMOGLOBIN [3]: 23.22 pg | MEAN CORPUSCULAR HEMOGLOBIN CONCENTRATION [3]: 36.7 G/DL | MEAN CORPUSCULAR VOLUME [3]: 63.22 fL | MONOCYTE [3]: 2.67% | NEUTROPHIL [3]: 9.17% | NUCLEATED RED BLOOD CELLS [3]: 0 /100WBC | PLATELET COUNT [3]: 836.5 x10E3/uL | ALANINE AMINOTRANSFERASE [3]: 112.17 u/L | ALBUMIN [3]: 3.92 G/DL | ALKALINE PHOSPHATASE [3]: 474.67 u/L | ASPARTATE AMINOTRANSFERASE [3]: 154.33 u/L | BLOOD UREA NITROGEN [3]: 15.5 mg/dL | CARBON DIOXIDE [3]: 31.67 mmol/L | CHLORIDE [3]: 101 MEQ/L | CHOLESTEROL [3]: 43.17 mg/dL | CREATINE PHOSPHOKINASE [3]: 313.5 u/L | CREATININE [3]: 0.21 mg/dL | GLUCOSE [3]: 143.17 mg/dL | LACTATE DEHYDROGENASE [3]: 105 u/L | LIPASE [3]: 12 u/L | PHOSPHORUS [3]: 9.75 mg/dL | POTASSIUM [3]: 5.51 MEQ/L | SODIUM [3]: 145.37 MEQ/L | TOTAL BILIRUBIN [3]: 0.1 mg/dL | TOTAL PROTEIN [3]: 5.6 G/DL | URIC ACID [3]: 0.52 mg/dL
